The source of these data is patent US20260234268A1, “ANTI-ASGR1 MONOCLONAL ANTIBODY AND USE THEREOF” (CHOLESGEN (SHANGHAI) CO., LTD., priority 2022, published 2026).

For data set [1], the system named is mice fed a high-fat, high-cholesterol, and cholate (HF/HC/BS) diet. The data set can be described thus: 4B9 and Ezetimibe, alone or combined, in mice fed HF/HC/BS diet (Example 3, FIG. 4). It counts as in vivo, mouse. The settings on record: sacrificed on day 7, 4B9 10 mg/kg i.p. every other day. The protocol:
All data are presented as mean±SEM.
We then devised an experiment as in FIG. 4 to verify the hypothesis. Mice were randomly divided into 8 groups according to the genotype (n=6) and fed an HF/HC/BS diet. They were intragastrically administered with EZ at 10 mg/kg per day and were intraperitoneally injected with 4B9 at 10 mg/kg every other day. The mice were sacrificed on day 7 to collect their tissues.

For data set [2] the following is noted: Ezetimibe used alone, clinical; cited from earlier work.
The test system of data set [3] is mice fed a high-fat, high-cholesterol, and cholate (HF/HC/BS) diet. Briefly: 4B9 and atorvastatin, alone or combined, in mice fed HF/HC/BS diet, 14 days (Example 2, FIG. 3). To be noted: 4B9 10 mg/kg/day i.p. every other day.
Experimental: 8-week-old Asgr1 knockout mice and wild-type littermates are randomly divided into 8 groups as shown in the figure according to the genotype, with 6 mice per group. The mice are given free access to water and fed a high-fat, high-cholesterol, and cholate (HF/HC/BS) diet (60% fat, 1.25% cholesterol, and 0.5% cholate). […] After 14 days, the mice are fasted for 4 hours before being sacrificed. All data are presented as mean±SEM. Statistical significance is calculated using an unpaired two-tailed Student's t-test. *p<0.05, **p<0.01, ***p<0.001. (a) Western blotting analysis of liver samples; (b) total cholesterol in serum; (c) triglyceride in serum; (d) total cholesterol in liver; (e) triglyceride in liver; (f) concentration of cholesterol in bile; (g) total cholesterol in bile; (h) concentration of bile acid in bile; (i) total bile acid in bile; (j) total cholesterol in feces; (k) body weight; (l) daily food intake; (m) ratio of liver weight to body weight; (n) blood glucose; (o) alanine transaminase in serum; (p) aspartate transaminase in serum; (q-r) real-time quantitative PCR analysis of genes related to cholesterol efflux, cholesterol synthesis and absorption, lipid synthesis, and bile acid synthesis in the liver of mice, and genes in other pathways, with cyclophilin as an internal reference; (s) hematoxylin-eosin staining of liver sections; (t) oil red O staining of liver sections.
In the experiment, wild-type littermates were used as a control. All mice were housed in an SPF (specific pathogen-free) facility and kept on a 12-hour light/12-hour dark cycle. 8-week-old male or female mice were fed a high-fat, high-cholesterol, and cholate diet (Research Diets, D12109C) as required by the experimental protocols. For treatments involving antibody neutralization or the combination of antibodies with statins or Ezetimibe, the mice were intraperitoneally injected with antibodies or intragastrically administered with drugs at specified doses. All animals were fasted for 4 hours before being sacrificed.
The collected cells or tissues were lysed in RIPA lysis buffer supplemented with protease and phosphatase inhibitors. The RIPA lysis buffer contained 50 mM Tris-HCl (pH=8.0), 150 mM NaCl, 2 mM MgCl2, 1.5% NP-40, 0.1% SDS, and 0.5% sodium deoxycholate. The protease inhibitor contained 10 μM MG-132, 10 μg/mL leupeptin, 1 mM PMSF, 5 μg/mL pepstatin, 25 μg/mL ALLN, and 1 mM DTT. The protein concentration of the lysate was determined using a BCA method (Thermo Fisher Scientific). The protein samples were incubated with membrane solubilization buffer (62.5 mM Tris-HCl (pH=6.8), 15% SDS, 8 M urea, 10% glycerol, and 100 mM DTT) and 4× loading buffer (150 mM Tris-HCl (pH=6.8), 12% SDS, 30% glycerol, 6% β-mercaptoethanol, and 0.02% bromophenol blue) at 37° C. for 30 minutes. The protein samples were separated by SDS-PAGE and transferred to a PVDF membrane, which was blocked in TBST, i.e., TBS containing 0.075% Tween 20 and 5% skim milk (3% BSA for phosphorylation experiments) for 1 hour. The membrane was incubated overnight at 4° C. with a specified primary antibody, and washed three times with TBST. Finally, Pierce ECL Plus Western blotting substrate (Thermo Fisher Scientific) was used for detection.
Blood was collected from the orbital sinus to obtain serum for the measurement of total cholesterol and triglyceride.
The mark [4] stands for this setting: EZ 10 mg/kg per day intragastric (FIGS. 4a, 4p-q).

Regarding `O=C1[C@H](CC[C@H](O)c2ccc(F)cc2)[C@@H](c2ccc(O)cc2)N1c1ccc(F)cc1` [Ezetimibe, reference compound], in data set [1] (8 groups of mice, EZ 10 mg/kg per day intragastric (FIG. 4j)), the body weight entry is given as “No significant differences”. Also, the daily food intake entry in data set [1] (8 groups of mice, EZ 10 mg/kg per day intragastric (FIG. 4k)) is “No significant differences”. The “ratio of liver weight to body weight” value in data set [1] (8 groups of mice, EZ 10 mg/kg per day intragastric (FIG. 4l)) is “No significant differences”. Also, the blood glucose entry in data set [1] (8 groups of mice, EZ 10 mg/kg per day intragastric (FIG. 4m)) is reported as “No significant differences”. The ALT entry in data set [1] (8 groups of mice, EZ 10 mg/kg per day intragastric (FIG. 4n)) is given as “No significant differences”. Further, the AST entry in data set [1] (8 groups of mice, EZ 10 mg/kg per day intragastric (FIG. 4o)) is given as “No significant differences”. In data set [1] (EZ 10 mg/kg per day intragastric (FIG. 4b)), the “total cholesterol in serum” value is on record as “effectively reduce”. Besides, the triglyceride in serum entry in data set [1] (EZ 10 mg/kg per day intragastric (FIG. 4c)) is “effectively reduce”. Also, in data set [1] (EZ 10 mg/kg per day intragastric (FIG. 4e)), the triglyceride in liver entry is reported as “effectively reduce”. The “total amount of total cholesterol in bile” value in data set [1] (EZ 10 mg/kg per day intragastric (FIG. 4g)) is given as “significantly inhibited”. Also, the “total amount of total bile acid in bile” value in data set [1] (EZ 10 mg/kg per day intragastric (FIG. 4i)) is “significantly inhibited”. Further, the “total cholesterol in liver” value in data set [1] (EZ 10 mg/kg per day intragastric (FIG. 4d)) is reported as “effectively reduce”. For the same compound, in data set [1] (setting [4]), the “cholesterol efflux-related genes and their proteins (LXRs, ABCG8, ABCA1, CYP7A1) in liver” value was “significant decrease”; the “lipid synthesis-related genes and their proteins (SREBP1, FASN) in liver” value is reported as “significant decrease”. In addition, the “reduction of the plasma concentration of LDL-c” value in data set [2] is “about 20%”.

Regarding `CC(C)c1c(C(=O)Nc2ccccc2)c(-c2ccccc2)c(-c2ccc(F)cc2)n1CC[C@@H](O)C[C@@H](O)CC(=O)O` [atorvastatin], the “total cholesterol in serum” value in data set [3] (atorvastatin 30 mg/kg/day intragastric daily (FIG. 3b)) is “effectively reduce”. For the same compound, in data set [3] (atorvastatin 30 mg/kg/day intragastric daily (FIG. 3c)), the triglyceride in serum entry is on record as “effectively reduce”. Besides, the triglyceride in liver result in data set [3] (atorvastatin 30 mg/kg/day intragastric daily (FIG. 3e)) is recorded as “effectively reduce”. In addition, the “total amount of total cholesterol in bile” value in data set [3] (atorvastatin 30 mg/kg/day intragastric daily (FIG. 3g)) was “almost no effect”. In addition, the “total cholesterol in feces” value in data set [3] (atorvastatin 30 mg/kg/day intragastric daily (FIG. 3j)) was “no effect”. Further, the “total cholesterol in liver” value in data set [3] (atorvastatin 30 mg/kg/day intragastric daily (FIG. 3d)) is “effectively reduce”. Also, the body weight entry in data set [3] (8 groups of mice, atorvastatin 30 mg/kg/day intragastric daily (FIG. 3k)) is “No significant differences”. In addition, the daily food intake result in data set [3] (8 groups of mice, atorvastatin 30 mg/kg/day intragastric daily (FIG. 3l)) is “No significant differences”. Moreover, the blood glucose result in data set [3] (8 groups of mice, atorvastatin 30 mg/kg/day intragastric daily (FIG. 3n)) is recorded as “No significant differences”. Besides, the ALT entry in data set [3] (8 groups of mice, atorvastatin 30 mg/kg/day intragastric daily (FIG. 3o)) was “No significant differences”. In data set [3] (8 groups of mice, atorvastatin 30 mg/kg/day intragastric daily (FIG. 3p)), the AST result is recorded as “No significant differences”.
